Test system: A375 multi-cell spheroids with HUVEC/MSC, viability
Experiment: Anticancer human tumor A375 cell line growth inhibition [GQUAD];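 also: spheroids exposed to compounds for seven days before readout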
Conditions: for IC50: curve of first compound; for viability, T/C: stronger effect = lower value
How it was run: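 Tumor cells were grown as complex spheroids with HUVEC endothelial cells and mesenchymal stem cells as stroma. G-quadruplex stabilizers were combined with targeted agents over half-log dilutions from near the clinical Cmax, or from 10 microM.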

[1] = second compound 0.0316 µM, first compound 0.0316 µM
[2] = second compound 0.0316 µM, first compound 0.316 µM
[3] = second compound 0.1 µM, first compound 0.0316 µM
[4] = second compound 0.1 µM, first compound 0.316 µM
[5] = second compound 0.316 µM, first compound 0.0316 µM
[6] = second compound 0.316 µM, first compound 0.316 µM
[7] = second compound 1 µM, first compound 0.0316 µM
[8] = second compound 1 µM, first compound 0.316 µM
[9] = second compound 3.16 µM, first compound 0.0316 µM
[10] = second compound 3.16 µM, first compound 0.316 µM
[11] = second compound 10 µM, first compound 0.0316 µM
[12] = second compound 10 µM, first compound 0.316 µM

Cc1[nH]c2ccccc2c1CCNCc1ccc(/C=C/C(=O)NO)cc1 + Cc1[nH]c2ccc(F)cc2c1-c1nc2c3cccnc3c3ncccc3c2[nH]1
IC50 (second compound 0.0316 µM): 153 nM
IC50 (second compound 0.1 µM): 150 nM
IC50 (second compound 0.316 µM): 152 nM
IC50 (second compound 1 µM): 138 nM
IC50 (second compound 3.16 µM): 60.6 nM
IC50 (second compound 10 µM): 95.8 nM
viability, T/C (second compound 0.0316 µM, first compound 0.000999 µM): 102%
viability, T/C (second compound 0.0316 µM, first compound 0.00316 µM): 108%
viability, T/C (second compound 0.0316 µM, first compound 0.00999 µM): 115%
viability, T/C [1]: 112%
viability, T/C (second compound 0.0316 µM, first compound 0.0999 µM): 73.4%
viability, T/C [2]: 10.5%
viability, T/C (second compound 0.1 µM, first compound 0.000999 µM): 105%
viability, T/C (second compound 0.1 µM, first compound 0.00316 µM): 109%
viability, T/C (second compound 0.1 µM, first compound 0.00999 µM): 110%
viability, T/C [3]: 124%
viability, T/C (second compound 0.1 µM, first compound 0.0999 µM): 72%
viability, T/C [4]: 9.67%
viability, T/C (second compound 0.316 µM, first compound 0.000999 µM): 110%
viability, T/C (second compound 0.316 µM, first compound 0.00316 µM): 98.1%
viability, T/C (second compound 0.316 µM, first compound 0.00999 µM): 118%
viability, T/C [5]: 116%
viability, T/C (second compound 0.316 µM, first compound 0.0999 µM): 72.4%
viability, T/C [6]: 10.8%
viability, T/C (second compound 1 µM, first compound 0.000999 µM): 98%
viability, T/C (second compound 1 µM, first compound 0.00316 µM): 103%
viability, T/C (second compound 1 µM, first compound 0.00999 µM): 113%
viability, T/C [7]: 106%
viability, T/C (second compound 1 µM, first compound 0.0999 µM): 65.9%
viability, T/C [8]: 8.42%
viability, T/C (second compound 3.16 µM, first compound 0.000999 µM): 76.4%
viability, T/C (second compound 3.16 µM, first compound 0.00316 µM): 78.5%
viability, T/C (second compound 3.16 µM, first compound 0.00999 µM): 81.9%
viability, T/C [9]: 86%
viability, T/C (second compound 3.16 µM, first compound 0.0999 µM): 26.4%
viability, T/C [10]: 5.39%
viability, T/C (second compound 10 µM, first compound 0.000999 µM): 86%
viability, T/C (second compound 10 µM, first compound 0.00316 µM): 93%
viability, T/C (second compound 10 µM, first compound 0.00999 µM): 98.3%
viability, T/C [11]: 92.2%
viability, T/C (second compound 10 µM, first compound 0.0999 µM): 48.4%
viability, T/C [12]: 5.49%

O=C(NO)c1cnc(N2CCN(S(=O)(=O)c3ccc4ccccc4c3)CC2)nc1 + Cc1[nH]c2ccc(F)cc2c1-c1nc2c3cccnc3c3ncccc3c2[nH]1
IC50 (second compound 0.0316 µM): 203 nM
IC50 (second compound 0.1 µM): 445 nM
IC50 (second compound 0.316 µM): 507 nM
IC50 (second compound 1 µM): 447 nM
IC50 (second compound 3.16 µM): 202 nM
IC50 (second compound 10 µM): 251 nM
viability, T/C [1]: 104%
viability, T/C (second compound 0.0316 µM, first compound 0.1 µM): 113%
viability, T/C [2]: 13.4%
viability, T/C (second compound 0.0316 µM, first compound 1 µM): 0.27%
viability, T/C (second compound 0.0316 µM, first compound 3.16 µM): 0.25%
viability, T/C (second compound 0.0316 µM, first compound 10 µM): 0.27%
viability, T/C [3]: 105%
viability, T/C (second compound 0.1 µM, first compound 0.1 µM): 119%
viability, T/C [4]: 71%
viability, T/C (second compound 0.1 µM, first compound 1 µM): 0.27%
viability, T/C (second compound 0.1 µM, first compound 3.16 µM): 0.8%
viability, T/C (second compound 0.1 µM, first compound 10 µM): 0.26%
viability, T/C [5]: 106%
viability, T/C (second compound 0.316 µM, first compound 0.1 µM): 112%
viability, T/C [6]: 84.5%
viability, T/C (second compound 0.316 µM, first compound 1 µM): 0.24%
viability, T/C (second compound 0.316 µM, first compound 3.16 µM): 0.19%
viability, T/C (second compound 0.316 µM, first compound 10 µM): 0.23%
viability, T/C [7]: 109%
viability, T/C (second compound 1 µM, first compound 0.1 µM): 106%
viability, T/C [8]: 71.3%
viability, T/C (second compound 1 µM, first compound 1 µM): 0.21%
viability, T/C (second compound 1 µM, first compound 3.16 µM): 0.15%
viability, T/C (second compound 1 µM, first compound 10 µM): 0.23%
viability, T/C [9]: 96.3%
viability, T/C (second compound 3.16 µM, first compound 0.1 µM): 89.5%
viability, T/C [10]: 24.7%
viability, T/C (second compound 3.16 µM, first compound 1 µM): 0.19%
viability, T/C (second compound 3.16 µM, first compound 3.16 µM): 0.16%
viability, T/C (second compound 3.16 µM, first compound 10 µM): 0.22%
viability, T/C [11]: 111%
viability, T/C (second compound 10 µM, first compound 0.1 µM): 105%
viability, T/C [12]: 36.2%
viability, T/C (second compound 10 µM, first compound 1 µM): 0.21%
viability, T/C (second compound 10 µM, first compound 3.16 µM): 0.21%
viability, T/C (second compound 10 µM, first compound 10 µM): 0.25%

From PubChem BioAssay AID2060485 (Molecular Pharmacology Branch, DTP, NCI, 2025)
